Data on eleven compounds can be found in US10758534B2 (Vertex Pharmaceuticals Incorporated, priority 2014, dated 2020).

The assay deals with T1, F508del (Homo sapiens, UniProt P13569, DEL508-508).
T1 construct: expressed in transfected cells
Kind of assay: Protocol 1: membrane potential optical assay (FLIPR III, voltage sensing dye), identification of potentiator compounds. The format is cell-based. Particulars: Table 3, compounds of Table 1. Put shortly:
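NIH 3T3 fibroblasts stably expressing F508del were cultured at 27° C for 24 hrs for temperature correction, then treated with compounds or DMSO and loaded with a voltage-sensing redistribution dye. Forskolin added with a Cl⁻ gradient activated the channel; membrane-potential fluorescence on FLIPR III reported increased gating.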

T1 sequence (P13569 with tags, fused parts or gaps DEL508-508): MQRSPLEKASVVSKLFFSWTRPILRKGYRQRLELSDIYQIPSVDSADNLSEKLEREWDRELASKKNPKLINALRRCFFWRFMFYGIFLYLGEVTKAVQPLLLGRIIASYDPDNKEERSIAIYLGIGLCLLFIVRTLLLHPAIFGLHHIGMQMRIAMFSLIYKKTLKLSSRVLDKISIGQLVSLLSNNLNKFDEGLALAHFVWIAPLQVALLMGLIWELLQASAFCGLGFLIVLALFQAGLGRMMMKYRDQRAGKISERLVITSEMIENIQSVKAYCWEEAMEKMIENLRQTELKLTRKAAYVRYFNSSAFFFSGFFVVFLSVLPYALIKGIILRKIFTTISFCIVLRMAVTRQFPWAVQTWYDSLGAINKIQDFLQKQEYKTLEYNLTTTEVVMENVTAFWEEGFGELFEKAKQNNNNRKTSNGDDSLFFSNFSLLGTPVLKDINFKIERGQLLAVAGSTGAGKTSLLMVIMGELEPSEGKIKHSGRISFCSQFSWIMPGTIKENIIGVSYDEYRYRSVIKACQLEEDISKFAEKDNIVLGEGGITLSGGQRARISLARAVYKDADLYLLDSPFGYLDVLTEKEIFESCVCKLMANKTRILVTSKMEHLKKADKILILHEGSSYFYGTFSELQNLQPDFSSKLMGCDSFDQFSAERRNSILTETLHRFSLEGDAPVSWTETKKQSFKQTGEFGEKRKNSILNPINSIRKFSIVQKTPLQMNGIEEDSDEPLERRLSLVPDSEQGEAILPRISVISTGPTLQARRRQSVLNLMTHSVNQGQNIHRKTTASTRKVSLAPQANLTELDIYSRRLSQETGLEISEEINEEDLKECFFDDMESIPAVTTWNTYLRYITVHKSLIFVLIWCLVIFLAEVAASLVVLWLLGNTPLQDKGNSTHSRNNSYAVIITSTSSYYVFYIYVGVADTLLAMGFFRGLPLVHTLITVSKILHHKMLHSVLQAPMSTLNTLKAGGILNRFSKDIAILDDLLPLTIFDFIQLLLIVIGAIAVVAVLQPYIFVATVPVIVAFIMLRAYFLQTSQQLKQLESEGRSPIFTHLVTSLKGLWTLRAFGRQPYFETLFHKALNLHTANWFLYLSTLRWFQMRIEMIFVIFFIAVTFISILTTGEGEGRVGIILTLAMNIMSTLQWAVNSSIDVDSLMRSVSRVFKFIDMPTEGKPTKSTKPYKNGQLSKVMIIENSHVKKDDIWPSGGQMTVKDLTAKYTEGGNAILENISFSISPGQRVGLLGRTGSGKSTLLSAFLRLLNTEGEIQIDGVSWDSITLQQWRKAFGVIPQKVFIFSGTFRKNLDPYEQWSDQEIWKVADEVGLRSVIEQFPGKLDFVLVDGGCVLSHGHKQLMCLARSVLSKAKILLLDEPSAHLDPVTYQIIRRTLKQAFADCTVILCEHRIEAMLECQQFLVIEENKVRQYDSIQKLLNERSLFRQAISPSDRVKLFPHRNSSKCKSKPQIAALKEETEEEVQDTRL

For `CC(C)COc1cc(F)cc(-c2ccc(C(=O)NS(=O)(=O)c3cccc(N)n3)c(N3CC4(CC4)CC3(C)C)n2)c1` [Compound 1746, N-[(6-amino-2-pyridyl)sulfonyl]-2-(5,5-dimethyl-6-azaspiro[2.4]heptan-6-yl)-6-(3-fluoro-5-isobutoxy-phenyl)pyridine-3-carboxamide], the EC30 entry was “+++ (“+++” means <3 uM)”.

For `CC(C)COc1cc(F)cc(-c2ccc(C(=O)NS(=O)(=O)c3cccc(N)n3)c(OCCC3CCC3)n2)c1` [Compound 1418, N-[(6-amino-2-pyridyl)sulfonyl]-2-(2-cyclobutylethoxy)-6-(3-fluoro-5-isobutoxy-phenyl)pyridine-3-carboxamide], the EC30 result was “+++ (“+++” means <3 uM)”.

Turning to `CC1(Cn2nc(C(C)(C)C)cc2C(=O)NS(=O)(=O)c2cccc(N)c2)CCCCC1` [Compound 1152, N-(3-aminophenyl)sulfonyl-5-tert-butyl-2-[(1-methylcyclohexyl)methyl]pyrazole-3-carboxamide], the EC30 entry is “+ (“+” means greater than 10 uM)”.

Take `Cc1cc(C)c(Oc2nc(N3CCCC3C)ccc2C(=O)NS(=O)(=O)c2cccc(N)n2)c(C)c1` (centres unmarked) [Compound 1553, N-[(6-amino-2-pyridyl)sulfonyl]-6-(2-methylpyrrolidin-1-yl)-2-(2,4,6-trimethylphenoxy)pyridine-3-carboxamide]: the EC30 result is listed as “+++ (“+++” means <3 uM)”.

Turning to `Cc1cc(-c2ccc(C(=O)NS(=O)(=O)c3cccnc3N)c(N3C[C@@H](C)CC3(C)C)n2)cnc1OCCOC(C)C` [Compound 1695, N-[(2-amino-3-pyridyl)sulfonyl]-6-[6-(2-isopropoxyethoxy)-5-methyl-3-pyridyl]-2-[(4S)-2,2,4-trimethylpyrrolidin-1-yl]pyridine-3-carboxamide], the EC30 entry is “+++ (“+++” means <3 uM)”.

As to `Cc1cc(C)c(Oc2nc(-c3ccnn3C(C)C)ccc2C(=O)NS(=O)(=O)c2cccc(N)n2)c(C)c1` [Compound 1317, N-[(6-amino-2-pyridyl)sulfonyl]-6-(2-isopropylpyrazol-3-yl)-2-(2,4,6-trimethylphenoxy)pyridine-3-carboxamide], the EC30 result is “+++ (“+++” means <3 uM)”.

On to `Cc1cc(C)c(Oc2nc(OC(C)(C)C)ccc2C(=O)NS(=O)(=O)c2cccc(N)n2)c(C)c1` [Compound 1070, N-[(6-amino-2-pyridyl)sulfonyl]-6-tert-butoxy-2-(2,4,6-trimethylphenoxy)pyridine-3-carboxamide], for which the EC30 result was “+++ (“+++” means <3 uM)”.

For `CCCOc1ccc(-c2ccc(C(=O)NS(=O)(=O)c3cccc(N)n3)c(Oc3c(C)cc(C)cc3C)n2)cc1` [Compound 996, N-[(6-amino-2-pyridyl)sulfonyl]-6-(4-propoxyphenyl)-2-(2,4,6-trimethylphenoxy)pyridine-3-carboxamide], the EC30 entry is reported as “+++ (“+++” means <3 uM)”.

Regarding `Cc1ccc(-c2ccc(C(=O)NS(=O)(=O)c3ccc[nH]c3=O)c(N3C[C@@H](C)CC3(C)C)n2)c2ccccc12` [Compound 1811, 6-(4-methyl-1-naphthyl)-N-[(2-oxo-1H-pyridin-3-yl)sulfonyl]-2-[(4S)-2,2,4-trimethylpyrrolidin-1-yl]pyridine-3-carboxamide], the EC30 entry is reported as “+++ (“+++” means <3 uM)”.

`CC1(C)C(CC2CC2)CCN1c1ncccc1C(=O)NS(=O)(=O)c1cccc(N)n1` (centres unmarked) [Compound 1794, N-[(6-amino-2-pyridyl)sulfonyl]-2-[3-(cyclopropylmethyl)-2,2-dimethyl-pyrrolidin-1-yl]pyridine-3-carboxamide]: the EC30 result is “++ (“++” means between 3 uM and 10 uM)”.

Take `CC(C)COc1cc(F)cc(-c2ccc(C(=O)NS(=O)(=O)c3cccc(N)n3)c(OCC3(C)COC3)n2)c1` [Compound 824, N-[(6-amino-2-pyridyl)sulfonyl]-6-(3-fluoro-5-isobutoxy-phenyl)-2-[(3-methyloxetan-3-yl)methoxy]pyridine-3-carboxamide]: the EC30 result was “++ (“++” means between 3 uM and 10 uM)”.
